This passage reports EC50 and inhibition results from patent US12617799B2, “Pyrazolopyrimidinone compounds” (Orphagen Pharmaceuticals, Inc., priority 2021, dated 2026).

Assay [1] deals with rat Leydig tumor cell line R2C. The assay is described as follows: R2C proliferation assay for SF-1 antagonists (EdU incorporation). The assay is classed as cell-based. The note with it: for EC50: read-out: R2C: EC50; for inhibition at 8 µM: Leydig. Here is the method: SF-1 regulates progenitor cell formation and survival in adult Leydig cells. Anti-proliferative effects of SF-1 antagonists using a SF-1+ rat Leydig tumor cell line, R2C, was investigated. Cell proliferation was measured by detecting DNA incorporation of EdU, a nucleoside analogue that can be fluorescently tagged after cell fixation.
Proliferation of the rat Leydig tumor cell line R2C (ATCC® CCL-97™) was assessed using 5-ethynyl-2′-deoxyuridine (EdU), a nucleoside analogue incorporated during DNA synthesis that can be fluorescently tagged after cell fixation. Cycloheximide, a protein synthesis inhibitor, was used as a positive control for the assay.
R2C cells are maintained according to a protocol provided by the American Type Culture Collection (ATCC). At the time of assay, R2C cells were diluted to 1.0 million cells/mL with culture medium (F12 medium supplemented with 2% FBS and 1% Penicillin-Streptomycin) and 50 uL of cell suspension seeded into each well of 384-well clear bottom plates. The assay plates were incubated in a humidified, 37° C., 6% CO2 atmosphere for 24 hours. Serially diluted SF-1 antagonists, cycloheximide or vehicle (DMSO) were then applied to the R2C cells and incubated in a humidified, 37° C., 6% CO2 atmosphere for two days. EdU (Invitrogen), at a final concentration of 5 μM, was added to the cells and incubated for an additional 16 hours, after which cells were fixed with 10% formalin.
Cells were then washed and permeabilized in 0.5% TritonX-100/PBS solution at RT for 1 hour. EdU incorporation was detected by labeling EdU with 6-FAM azide (Lumiprobe) using a copper (I)-catalyzed Click reaction between an azide and alkyne. The reaction mixture consists of 5 mM ascorbic acid, 1 mM CuSO4, 1 μM 6-FAM azide dissolved in PBS buffer. […] For data normalization, the average fluorescence of DMSO wells was defined as 100%, and average fluorescence of 10 μM cycloheximide wells was defined as 0%. Curve fitting and EC50 determination were performed using the variable slope sigmoidal dose-response analysis.
R2C cells were routinely cultured in R2C culture medium. To assay SF-1 antagonist inhibitory activity, R2C cells were resuspended in the R2C plating medium and plated into a 384 well-clear bottom black plate at 20,000 cells/50 μL/well. […] 10 μL EdU plating solution were then dispensed into each well of assay plate incubated at 37° C., 6% CO2 for two days.
R2C proliferation is measured by detecting the fluorescent labelled EdU. The R2C assay plates were fixed by dispense 60 μL of 10% formalin into each well, and the plates were incubated at room temperature for 1 hour on an orbital shaker. The plates were washed with 80 μL of PBS three times, and cells were permeabilized by treating with 100 μL of PBS-0.5% TritonX-100 at RT for 1 hour on an orbital shaker. The plates were washed with 80 μL of PBS three times, and after the last wash, 25 μL of PBS was dispensed into each well. 25 μL of 2× mounting mix solution was then added into each well of fixed cells, and the plates were incubated at RT for 30 min in the dark on an orbital shaker. The cells were washed with 80 μL of PBS, three times, and after the last wash, 25 μL of PBS was dispensed into each well. […] The cells were washed with 80 μL of PBS, three times, and after the last wash, 50 μL of PBS was dispensed into each well. Assay plates were sealed with aluminum foil, and fluorescence was measured using a Envision microplate reader.
The % of control for the proliferation activity was calculated according to the following equation: % of control=100×(A−C)/(B−C) Equation • A: fluorescence count in the test article-treated R2C cells • B: mean fluorescence count in the vehicle-treated R2C cells • C: mean fluorescence count in the 10 μM cycloheximide-treated R2C cells

Assay [2] has as its target T1, human SF-1 (Homo sapiens, UniProt Q13285).
T1 construct: expressed in transfected cells; host or cells: CHO-K1 cells (Chinese hamster ovary), transient cotransfection with pG5luc
Briefly: SF-1 Luc assay (Gal4DBD-SF-1LBD luciferase reporter in transfected CHO-K1 cells). The assay is classed as cell-based. The note with it: for EC50: CHO-K1 cells transfected with GAL4-SF-1 plasmid, 40 hours incubation, read-out: hSF-1-Luc: EC50. The text has this:
BamHI and XbaI sites introduced by the primers […] (forward) and […] (reverse) were used for subcloning the amplicon into pFA-CMV.
Cells were routinely cultured by splitting them from 1:10 to 1:20. […] Four hours after transfection, cells were trypsinized and suspended to a concentration of 1.6×10^5 cells/ml in supplemented Ham's F-12 media.
Assays: The collected cells were resuspended in the culture medium and plated into a 384 well-white plate (Corning Life Sciences, Acton, MA) at 8,000 cells/50 μL/well.
Measurement of SF-1 Transcriptional Activity: SF-1 transcriptional activity was detected as the intracellular Luc activity using SteadyLite Plus HTS Reporter Gene Assay System. After the measurement of the cell viability, the culture media in the 384 well-plate were completely removed. Then, 30 μL of the Luc substrate solution was added into each well and incubated for 10 min at room temperature. After the incubation, luminescence of each well was measured by a microplate reader.
Calculation of the SF-1 Transcriptional Activity (% of Control): The % of control for the transcriptional activity was calculated according to the following equation: % of control=A/B×100 Equation • A: luminescence count in the test article-treated CHO cells transfected with GAL4-SF-1 plasmid • B: mean luminescence count in the vehicle-treated CHO cells transfected with GAL4-SF-1 plasmid
On the technique in general: In a reporter assay the amount or activity of a reporter protein is the signal.

Where two headings read alike, the source gives them in different places.

T1 sequence (Q13285 198-461 limits assumed): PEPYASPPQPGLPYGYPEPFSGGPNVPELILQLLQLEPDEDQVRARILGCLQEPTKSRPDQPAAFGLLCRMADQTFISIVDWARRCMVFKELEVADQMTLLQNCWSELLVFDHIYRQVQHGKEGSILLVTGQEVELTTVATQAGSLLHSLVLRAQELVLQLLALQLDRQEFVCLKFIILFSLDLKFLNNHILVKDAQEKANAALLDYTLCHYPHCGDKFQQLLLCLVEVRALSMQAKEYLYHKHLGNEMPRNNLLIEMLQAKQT

The EC50 is the concentration at which the effect is half-maximal. On to `C[C@@H](O)CO[C@H]1CC[C@H](NC(=O)Cn2cnc3c(Nc4ccc(C(F)(F)F)cc4)nn(C)c3c2=O)CC1` [Compound 23, N-((1R,4r)-4-((R)-2-hydroxypropoxy)cyclohexyl)-2-(1-methyl-7-oxo-3-((4-(trifluoromethyl)phenyl)amino)-1,7-dihydro-6H-pyrazolo[4,3-d]pyrimidin-6-yl)acetamide], for which the EC50 is less than 200 nM in assay [1] (R2C cells, EdU incorporation) and less than 200 nM in assay [2].
Consider `Cn1nc(Nc2ccc(C(F)(F)F)cc2)c2ncn(CC(=O)N[C@H]3CC[C@H](OCC(C)(C)O)CC3)c(=O)c21` [Compound 24, N-((trans)-4-(2-hydroxy-2-methylpropoxy)cyclohexyl)-2-(1-methyl-7-oxo-3-((4-(trifluoromethyl)phenyl)amino)-1,7-dihydro-6H-pyrazolo[4,3-d]pyrimidin-6-yl)acetamide], for which the EC50 in assay [1] (R2C cells, EdU incorporation) was less than 200 nM; in assay [2], less than 200 nM.
Turning to `Cn1nc(Nc2ccc(C(F)(F)F)cc2)c2ncn(CC(=O)N[C@H]3CC[C@H](C(C)(C)CO)CC3)c(=O)c21` [Compound 27, N-((trans)-4-(1-hydroxy-2-methylpropan-2-yl)cyclohexyl)-2-(1-methyl-7-oxo-3-((4-(trifluoromethyl)phenyl)amino)-1,7-dihydro-6H-pyrazolo[4,3-d]pyrimidin-6-yl)acetamide], the EC50 is less than 200 nM in assay [1] (R2C cells, EdU incorporation) and less than 200 nM in assay [2].
Consider `Cn1nc(Nc2ccc(C(F)(F)F)cc2)c2ncn(CC(=O)N[C@H]3CC[C@H](O)CC3)c(=O)c21` [Compound 28, N-((trans)-4-hydroxycyclohexyl)-2-(1-methyl-7-oxo-3-((4-(trifluoromethyl)phenyl)amino)-1,7-dihydro-6H-pyrazolo[4,3-d]pyrimidin-6-yl)acetamide], for which the concentration giving a half-maximal response (EC50) in assay [1] (R2C cells, EdU incorporation) lay within 1000 to 10000 nM; in assay [2], 200 to 1000 nM.
Take `Cn1nc(Nc2ccc(C(F)(F)F)cc2)c2ncn(CC(=O)N[C@H]3CC[C@H](OC(F)F)CC3)c(=O)c21` [Compound 32, N-((1r,4r)-4-(difluoromethoxy)cyclohexyl)-2-(1-methyl-7-oxo-3-((4-(trifluoromethyl)phenyl)amino)-1,7-dihydro-6H-pyrazolo[4,3-d]pyrimidin-6-yl)acetamide]: the EC50 in assay [1] (R2C) and in assay [2] was less than 200 nM in each case.
In the case of `Cn1nc(Nc2ccc(C(F)(F)F)cc2)c2ncn(CC(=O)N[C@H]3CC[C@@H](OC(F)F)CC3)c(=O)c21` [Compound 36, N-((1s,4s)-4-(difluoromethoxy)cyclohexyl)-2-(1-methyl-7-oxo-3-((4-(trifluoromethyl)phenyl)amino)-1,7-dihydro-6H-pyrazolo[4,3-d]pyrimidin-6-yl)acetamide], the EC50 in assay [1] (R2C) is 200 to 1000 nM; in assay [2] it was less than 200 nM.
For the molecule `Cn1nc(Nc2ccc(C(F)(F)F)cc2)c2ncn(CC(=O)N[C@H]3CC[C@H](OCC4CCOCC4)CC3)c(=O)c21` [Compound 39, 2-(1-methyl-7-oxo-3-((4-(trifluoromethyl)phenyl)amino)-1,7-dihydro-6H-pyrazolo[4,3-d]pyrimidin-6-yl)-N-((1r,4r)-4-((tetrahydro-2H-pyran-4-yl)methoxy)cyclohexyl)acetamide], the half-maximal effective concentration (EC50) in assay [1] (R2C cells, EdU incorporation) was less than 200 nM; in assay [2] it was less than 200 nM.
By inhibition is commonly meant the drop in the measured response relative to a control, in per cent. In assay [1], `Cn1nc(Nc2ccc(C(F)(F)F)cn2)c2ncn(CC(=O)N[C@H]3CC[C@H](OCC(C)(C)O)CC3)c(=O)c21` [Compound 52, N-((1r,4r)-4-(2-hydroxy-2-methylpropoxy)cyclohexyl)-2-(1-methyl-7-oxo-3-((5-(trifluoromethyl)pyridin-2-yl)amino)-1,7-dihydro-6H-pyrazolo[4,3-d]pyrimidin-6-yl)acetamide] displayed an inhibition at 8 µM of 72%. Besides, the concentration for a half-maximal effect (EC50) in assay [2] is 1000 to 10000 nM.
On to `Cn1nc(Nc2ccc(C(F)(F)F)cn2)c2ncn(CC(=O)N[C@H]3CC[C@H](OC(F)F)CC3)c(=O)c21` [Compound 55, N-((1r,4r)-4-(difluoromethoxy)cyclohexyl)-2-(1-methyl-7-oxo-3-((5-(trifluoromethyl)pyridin-2-yl)amino)-1,7-dihydro-6H-pyrazolo[4,3-d]pyrimidin-6-yl)acetamide], for which the EC50 was in the range of 1000 to 10000 nM in assay [1] (R2C cells, EdU incorporation) and 200 to 1000 nM in assay [2].
Regarding `COc1ccc(NC(=O)Cn2cnc3c(Nc4ccc(C(F)(F)F)cn4)n[nH]c3c2=O)cc1F` [Compound 63, N-(3-fluoro-4-methoxyphenyl)-2-(7-oxo-3-((5-(trifluoromethyl)pyridin-2-yl)amino)-1,7-dihydro-6H-pyrazolo[4,3-d]pyrimidin-6-yl)acetamide], the inhibition at 8 µM was determined as 19% in assay [1] and 75% in assay [2] (CHO-K1, read-out: hSF-1-Luc: inhibition at 8 uM).
`COc1ccc(NC(=O)Cn2cnc3c(Nc4ccc(C(F)(F)F)cn4)nn(C)c3c2=O)cc1F` [Compound 64, N-(3-fluoro-4-methoxyphenyl)-2-(1-methyl-7-oxo-3-((5-(trifluoromethyl)pyridin-2-yl)amino)-1,7-dihydro-6H-pyrazolo[4,3-d]pyrimidin-6-yl)acetamide]: the EC50 was in the range of 1000 to 10000 nM in assay [1] (R2C cells, EdU incorporation) and 1000 to 10000 nM in assay [2].
In the case of `Cn1nc(Nc2ccc(C(F)(F)F)nc2)c2ncn(CC(=O)N[C@H]3CC[C@H](OC(F)F)CC3)c(=O)c21` [Compound 65, N-((1r,4r)-4-(difluoromethoxy)cyclohexyl)-2-(1-methyl-7-oxo-3-((6-(trifluoromethyl)pyridin-3-yl)amino)-1,7-dihydro-6H-pyrazolo[4,3-d]pyrimidin-6-yl)acetamide], the EC50 in assay [1] (R2C cells, EdU incorporation) is 200 to 1000 nM; in assay [2] it was less than 200 nM.
In the same order, the values of `Cn1nc(Nc2ccc(C(F)(F)F)nc2)c2ncn(CC(=O)N[C@H]3CC[C@H](OCC(C)(C)O)CC3)c(=O)c21` [Compound 68, N-((1r,4r)-4-(2-hydroxy-2-methylpropoxy)cyclohexyl)-2-(1-methyl-7-oxo-3-((6-(trifluoromethyl)pyridin-3-yl)amino)-1,7-dihydro-6H-pyrazolo[4,3-d]pyrimidin-6-yl)acetamide] are 1000 to 10000 nM and 200 to 1000 nM.
For `COc1ccc(NC(=O)Cn2cnc3c(Nc4ccc(OC(C)C)cc4)nn(C)c3c2=O)cc1F` [Compound 70, N-(3-fluoro-4-methoxyphenyl)-2-(3-((4-isopropoxyphenyl)amino)-1-methyl-7-oxo-1,7-dihydro-6H-pyrazolo[4,3-d]pyrimidin-6-yl)acetamide], the EC50 in assay [1] (R2C cells, EdU incorporation) is 1000 to 10000 nM; in assay [2] it was less than 200 nM.
Regarding `COc1ccc(NC(=O)Cn2cnc3c(Nc4ccc(Cl)cc4)nn(C)c3c2=O)cc1F` [Compound 71, 2-(3-((4-chlorophenyl)amino)-1-methyl-7-oxo-1,7-dihydro-6H-pyrazolo[4,3-d]pyrimidin-6-yl)-N-(3-fluoro-4-methoxyphenyl)acetamide], the concentration for a half-maximal effect (EC50) in assay [1] (R2C) and in assay [2] was less than 200 nM in each case.
